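Growth conditions: 96-well plates. Treatment: test compound, 48 hours, 5 concentrations. Analysis: linear interpolation between bracketing concentrations; unreached endpoints set to highest concentration. TGI: total growth inhibition.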 Where a SMILES comes first, the peptide text is derived from it. [ ]: non-standard residue; d: D form. The star is where a group is joined. NMeAc5c = CNC1(C(=O)O)CCCC1; Boc = CC(C)(C)OC(=O)*; OBn = c1ccc(CO*)cc1
Experiments:
Experiment in all cases: NCI-60 cell line screen, 48 h
786-0 renal = test system: 786-0 renal
A549 NSCLC = test system: A549 NSCLC
COLO 205 colon = test system: COLO 205 colon
HCC-2998 colon = test system: HCC-2998 colon
HCT-116 colon = test system: HCT-116 colon
MCF7 breast = test system: MCF7 breast
NCI/ADR-RES ovarian = test system: NCI/ADR-RES ovarian
OVCAR-8 ovarian = test system: OVCAR-8 ovarian
SR leukemia = test system: SR leukemia
SW-620 colon = test system: SW-620 colon
T-47D breast = test system: T-47D breast
U251 CNS = test system: U251 CNS
UACC-257 melanoma = test system: UACC-257 melanoma

Structure (SMILES)	TGI (786-0 renal)	TGI (A549 NSCLC)	TGI (COLO 205 colon)	TGI (HCC-2998 colon)	TGI (HCT-116 colon)	TGI (MCF7 breast)	TGI (NCI/ADR-RES ovarian)	TGI (OVCAR-8 ovarian)	TGI (SR leukemia)	TGI (SW-620 colon)	TGI (T-47D breast)	TGI (U251 CNS)	TGI (UACC-257 melanoma)
COc1ccc(N/N=C2\CCOc3ccc(C)cc3C2=O)cc1	41.8 µM	> 100 µM	> 100 µM	97.5 µM	> 100 µM	> 100 µM	> 100 µM	> 100 µM	> 100 µM	> 100 µM	42.4 µM	66 µM	54.6 µM
CC(C)(C)N1CSC(=S)N(Cc2ccco2)C1	11.5 µM	24.4 µM	14.7 µM	13.3 µM	16.7 µM	14.3 µM	18.4 µM	5.63 µM	3.55 µM	11.9 µM	46.4 µM	14.4 µM	25 µM
CCCCCCCCCCCCCCNC(=O)CCC(NC(=O)c1ccc(N(C)Cc2cnc3nc(N)nc(N)c3n2)cc1)C(=O)NCCCCCCCCCCCCCC (stereo not given)	52.1 µM	> 36.3 µM	> 62.9 µM	19.8 µM	> 100 µM	29.2 µM	> 100 µM	39.8 µM	21.8 µM	> 43 µM	38.5 µM	32.6 µM	35.4 µM
C=CCN1C[C@H](C)N([C@H](c2ccc(C(=O)NC(CC)CC)cc2)c2cccc(OC)c2)C[C@H]1C	> 100 µM	> 100 µM	32.5 µM	> 100 µM	> 100 µM	> 100 µM	> 100 µM	> 100 µM	44.4 µM	> 100 µM	> 100 µM	> 100 µM	70.7 µM
COC(=O)c1c(C)cccc1C1CN=NC12Cc1ccc(C)cc1C2=O (stereo not given)	> 100 µM	> 100 µM		> 100 µM	74 µM	> 100 µM	> 100 µM	> 100 µM	> 100 µM	> 100 µM	49.8 µM	> 100 µM	> 100 µM
O=C1C=CC(=O)c2c1ccc1c3ccccc3n(CCCCCCCCCCCCn3c4ccccc4c4ccc5c(c43)C(=O)C=CC5=O)c21	> 100 µM	> 100 µM	> 100 µM	> 46.4 µM	> 100 µM	> 100 µM	> 100 µM	> 100 µM	> 100 µM	> 100 µM	> 100 µM	> 100 µM	> 100 µM
CCCCCCc1cc2cc(-c3csc(CC#N)n3)c(=O)oc2cc1O	> 64.2 µM	> 100 µM	> 100 µM	> 100 µM	> 100 µM	> 100 µM	> 100 µM	> 100 µM	> 100 µM	> 100 µM	> 100 µM	> 100 µM	> 100 µM
COc1ccc2cc(NC(=O)N/N=C\c3ccc([N+](=O)[O-])cc3)ccc2c1	> 100 µM	> 100 µM	> 100 µM	> 100 µM	> 100 µM	> 100 µM	97.2 µM	87.3 µM	> 100 µM	> 100 µM	> 100 µM	> 100 µM	> 100 µM
Nn1c(-c2ccccc2)nn(C(=O)c2ccccc2)c1=O	> 100 µM	> 100 µM	> 100 µM	> 100 µM	> 100 µM	> 100 µM	> 100 µM	> 100 µM	> 100 µM	> 100 µM	> 100 µM	> 100 µM	> 100 µM
Nc1nc(Cl)cc(NCC2(CO)CC(=O)C2)n1	> 100 µM	> 100 µM	> 100 µM	> 100 µM	> 100 µM	> 100 µM	> 100 µM	> 100 µM	> 100 µM	> 100 µM	> 100 µM	> 100 µM	> 100 µM
CN1CCN(C2=NCCO2)CC1	> 100 µM	> 100 µM	> 100 µM	> 100 µM	> 100 µM	> 100 µM	> 100 µM	> 100 µM	> 100 µM	> 100 µM	> 100 µM	> 100 µM	> 100 µM
COc1cc(C2c3cc4c(cc3OC(N3CCOCC3)C2C)OCO4)ccc1O (stereo not given)	> 100 µM	> 100 µM	> 100 µM	52.5 µM	50.4 µM	> 83 µM	52.2 µM	> 100 µM	> 68.9 µM	> 100 µM	> 78.2 µM	> 100 µM	> 100 µM
COC(=O)C1SC(SC)=NC12c1ccccc1Nc1ccccc12 (stereo not given)	> 100 µM	> 100 µM	39.3 µM	74.3 µM	> 100 µM	82.7 µM	> 100 µM	> 100 µM	53.4 µM	> 100 µM	> 100 µM	66.6 µM	84.6 µM
COc1cc(Br)cc2cc(-c3cn4ccsc4n3)c(=O)oc12	> 100 µM	> 100 µM	> 100 µM	24 µM	> 100 µM	38.6 µM	> 100 µM	> 100 µM	> 100 µM	> 100 µM	> 100 µM	> 100 µM	> 100 µM
O=C1/C(=C/c2ccccc2)N=C2Sc3c(nc[nH]c3=O)N12	> 100 µM	> 100 µM	> 100 µM	> 100 µM	> 100 µM	> 100 µM	> 100 µM	> 100 µM	68 µM	> 100 µM	> 100 µM	> 100 µM	> 100 µM
CCCN(C(=O)c1ccccc1)C(C#N)c1ccc(C(C#N)N(CCC)C(=O)c2ccccc2)cc1 (stereo not given)	> 100 µM	> 100 µM	> 100 µM	> 100 µM	> 100 µM	> 100 µM	> 100 µM	> 100 µM	> 100 µM	> 100 µM	85.7 µM	> 100 µM	> 100 µM
Cc1ccccc1C(=O)N1CCc2c([nH]c3ccccc23)C1	54.4 µM	> 100 µM	31.9 µM	33.9 µM	33 µM	51.8 µM	62.7 µM	> 100 µM	50 µM	> 100 µM	71.8 µM	41.3 µM	58.2 µM

Structure (SMILES)	TGI (786-0 renal)	TGI (A549 NSCLC)	TGI (COLO 205 colon)	TGI (HCC-2998 colon)	TGI (HCT-116 colon)	TGI (MCF7 breast)	TGI (NCI/ADR-RES ovarian)	TGI (OVCAR-8 ovarian)	TGI (SR leukemia)	TGI (SW-620 colon)	TGI (T-47D breast)	TGI (U251 CNS)	TGI (UACC-257 melanoma)
CCOC(=O)C(SCCO)C(C(=O)OCC)n1cnc2c(=O)[nH]c(NC(C)=O)nc21 (stereo not given)	> 100 µM	> 100 µM	> 100 µM	> 100 µM	> 100 µM	> 100 µM	> 100 µM	> 100 µM	> 100 µM	> 100 µM	> 100 µM	> 100 µM	> 100 µM
CN(C(=O)C(Cc1ccccc1)NC(=O)OC(C)(C)C)C1(C(=O)NC(Cc2ccccc2)C(=O)OCc2ccccc2)CCCC1 (stereo not drawn) (Boc-Phe-[NMeAc5c]-Phe-OBn; configuration not given here)	> 100 µM	> 100 µM	52.3 µM	> 100 µM	> 100 µM	> 100 µM	> 100 µM	> 100 µM	69.1 µM	> 100 µM	> 100 µM	51.1 µM	> 100 µM
C[C@@H](NC(=O)[C@@H]1C[C@]1(C)COC(=O)c1cc([N+](=O)[O-])cc([N+](=O)[O-])c1)c1cccc2ccccc12	> 100 µM	> 100 µM	> 100 µM	> 100 µM	> 100 µM	> 100 µM	> 100 µM	> 100 µM	> 100 µM	> 100 µM	> 100 µM	> 100 µM	> 100 µM
COc1ccc(C2CC(c3c(O)ccc4ccccc34)=NN2C(C)=O)cc1OC (stereo not given)	> 100 µM	> 100 µM	42.8 µM	54.3 µM	28.6 µM	71.5 µM	> 100 µM	> 100 µM	40.6 µM	> 100 µM	> 100 µM	> 100 µM	> 100 µM
COC(=O)c1ccccc1CC1Cc2ccc3c(c2C1=O)CCCC3 (stereo not given)	> 100 µM	> 100 µM	> 100 µM	> 100 µM	> 100 µM	> 100 µM	> 84.9 µM	> 100 µM	24.5 µM	> 100 µM	> 78.1 µM	> 100 µM	> 100 µM
C[C@@H]1CC[C@]2(C(=O)O)CC[C@]3(C)C(=CC[C@@H]4[C@@]5(C)CC[C@H](O)C(C)(C)[C@@H]5CC[C@]43C)[C@@H]2[C@]1(C)O	18.7 µM	33.3 µM	30 µM	29.2 µM	24.6 µM	35.7 µM	32.6 µM	37.3 µM	30 µM	42.1 µM	32.9 µM	27.3 µM	19.8 µM
CC1(C)OC(=O)N(c2ccccc2)C12C=Cc1cc([N+](=O)[O-])cc([N+](=O)[O-])c1O2 (stereo not given)	> 100 µM	> 100 µM	> 100 µM	> 100 µM	> 100 µM	> 100 µM	> 100 µM	> 100 µM	> 100 µM	> 100 µM	> 100 µM	> 100 µM	> 100 µM
CCOC(=O)/C=C/CC(C)(C)CCOC(C)=O	> 10 µM	> 10 µM	> 10 µM	> 10 µM	> 10 µM	> 10 µM	> 10 µM	> 10 µM	> 10 µM	> 10 µM	> 10 µM	> 10 µM	> 10 µM
O=c1c2cc([N+](=O)[O-])cnc2sn1-c1ccc([N+](=O)[O-])cc1	> 100 µM	> 100 µM	37.3 µM	> 100 µM	83.9 µM	> 100 µM	99.3 µM	> 100 µM	54.6 µM	> 100 µM	83.6 µM	> 100 µM	> 100 µM
CN1C(=O)C2CCC(=O)N2c2cccnc21 (stereo not given)	> 100 µM	> 100 µM	> 100 µM	> 100 µM	> 100 µM	> 100 µM	> 100 µM	> 100 µM	> 100 µM	> 100 µM	> 100 µM	> 100 µM	> 100 µM
O=c1[nH]c(Nc2cccc(CC(F)(F)F)c2)nc2nc[nH]c12	> 100 µM	> 100 µM	> 100 µM	> 100 µM	> 100 µM	> 100 µM	> 100 µM	> 100 µM	> 100 µM	> 100 µM	> 100 µM	> 100 µM	> 100 µM
c1csc(-c2ccc(-c3cccc4nsnc34)s2)c1	> 100 µM	> 100 µM	> 100 µM	> 100 µM	> 100 µM	> 100 µM	> 100 µM	> 100 µM	52.2 µM	> 100 µM	> 100 µM	> 100 µM	> 100 µM
NC(N)=N/N=C/c1c(-c2ccc(N)cc2)nc2sccn12	62 µM	47.6 µM	57.8 µM		59.2 µM	> 100 µM	> 100 µM	> 100 µM	89.3 µM	68.2 µM	90.3 µM	64.1 µM	> 100 µM
O=C1/C(=C\c2ccccc2)C(NC2CCCCC2)c2ccccc21 (stereo not given)	2.14 µM	16.4 µM	3.22 µM		2.44 µM	2.67 µM	98.5 µM	6.09 µM	0.473 µM	2.12 µM	4.69 µM	3.48 µM	2.69 µM
c1ccc(-c2nc(-c3ccccc3SSc3ccccc3-c3nc(-c4ccccc4)nn3-c3ccccc3)n(-c3ccccc3)n2)cc1	> 100 µM	> 100 µM	> 100 µM	> 100 µM	> 100 µM	> 100 µM	> 100 µM	> 100 µM	> 100 µM	> 100 µM	> 100 µM	> 100 µM	
CCOC(=O)c1csc(NC(=O)CN2CCOCC2)n1		> 100 µM	> 100 µM	> 100 µM		> 100 µM	> 100 µM	> 100 µM	> 100 µM	> 100 µM	> 100 µM	> 100 µM	> 100 µM
CCOC(=O)CSc1c(C(=O)OCC)c(=O)n(-c2ccccc2)c(=S)n1-c1ccccc1	> 100 µM	> 100 µM	> 100 µM		> 100 µM	> 100 µM	8.6 µM	> 100 µM	> 100 µM	> 100 µM	> 100 µM	> 100 µM	> 100 µM

Reference: PubChem BioAssay (NCI)
